Data set [1] can be described thus: water solubility. It counts as physicochemical.
A short description of data set [2]: stability in the presence of UV radiation. It is filed as physicochemical.
For data set [3], the system named is certain weeds. The settings on record: cited from earlier work.

Values after ≈ are worked out from the molar mass of the structure shown.

Compound `CCN(CC)C(=O)[C@@H](C)Oc1cccc2ccccc12` [D-(−)-N,N-diethyl-2-(α-naphthoxy)propionamide] gave a water solubility in data set [1] of 50 mg/1 ltr. In data set [2], the “stability in the presence of UV radiation / UV light, colour change” value is recorded as “stable in the presence of UV light”. Also, the “activity relative to the (L)-isomer” value in data set [3] ((D)-isomer vs (L)-isomer) is 8 times. The “activity relative to the racemic mixture” value in data set [3] ((D)-isomer vs racemic mixture) is 1.7-2 times.
In general, solubility refers to the dissolved amount per volume that the medium holds. A low value points to little dissolved substance. As to `CCN(CC)C(=O)C(C)Oc1cccc2ccccc12` (racemic) [Racemic form of -(−)-N,N-diethyl-2-(α-naphthoxy)propionamide, N,N-diethyl-2-(α-naphthoxy)propionamide, reference compound], the concentration in solution in data set [1] (water, at 20° C.) (solubility) came to 73 µg/mL (≈ 269 µM). The “stability in the presence of UV radiation / UV light, colour change” value in data set [2] is “decomposes in the presence of UV radiation with colour change”.

Values taken from patent US8309765B2, “Process for manufacture of high purity D-(−)-N,N-diethyl-2-(α-naphthoxy) propionamide” (United Phosphorus Limited, priority 2007, dated 2012).
